Measured values published in patent US20110071225A1, “METHOD FOR OBTAINING A SEQUOYITOL-CONTAINING EXTRACT FROM GENUS NEPHROLEPIS AND USES THEREOF” (GUANGZHOU WELMAN NEW DRUG R&D CO., LTD., priority 2008, published 2011).

Key:
Solubility in water = assay type: physicochemical
Procedure: Sequoyitol was dissolved in water and sterilized by filtration. Solutions for injection were prepared according to the operation procedure of solutions for injection. Powder for injection was prepared according to the operation procedure of lyophilized powder for injection.

diabetes models = conditions: sequoyitol isolated from Taxus chinensis; cited from earlier work
[1] = sequoyitol isolated from Taxus chinensis; cited from earlier work
[2] = tested on: elevated level of blood glucose induced by alloxan in mice; experiment: Effect on the elevated level of blood glucose induced by alloxan in mice; assay type: in vivo; conditions: 75 mg/kg via gavage, 7 days
Procedure: 80 male mice weighed 22˜25 g were used. 20 mice were randomly taken as the blank group. Others were injected intravenously with alloxan via caudal vein at a dose of 65 mg/kg body weight, and then modeled according to established methods. The mice were divided into 3 groups according to their level of blood glucose, in which 2 groups were administered via gavage with 60 mg/kg of the Nephrolepis auriculata extract, 75 mg/kg of phenformin (positive control) respectively for consecutive 7 days, in a volume of 0.1 ml/10 g body weight. The same volume of distilled water was administered to the blank group and the control group. Blood glucose was determined using glucose oxidase method.

| SMILES | Solubility in water (Solubility in water) | Absorption of glucose (diabetes models) | Breakdown of hepatic glycogen (diabetes models) | High glycemia in diabetes models (diabetes models) | Toxicity [1] | Decrease of hyperglycemia induced by alloxan vs control group [2] [mg/dL] |
| --- | --- | --- | --- | --- | --- | --- |
| CO[C@H]1[C@H](O)[C@@H](O)[C@@H](O)[C@@H](O)[C@@H]1O [Sequoyitol, sequoyitol] | well soluble | inhibits | inhibits | remarkably decreases | very low toxicity | – |
| [H]/N=C(/N)N/C(=N/[H])NCCc1ccccc1 [phenformin] | – | – | – | – | – | 152.8 |
